Among the data in patent publication US12617798B2, “Imidazopyrazne derivatives” (Hoffmann-La Roche Inc., priority 2020, dated 2026) are IC90 values, retold here.

Assay [1] has as its system Acinetobacter baumannii ATCC17961. Description: Antimicrobial susceptibility testing, 90% growth inhibitory concentration (IC90) determination. Format: cell-based. The following applies: Iso-Sensitest broth, OD 600 nm over 16 h, 35±2° C., read-out: ATCC 17961 IC90. The procedure:
(§1) 90% Growth Inhibitory Concentration (IC90) Determination The in vitro antimicrobial activity of the compounds was determined according to the following procedure: The assay used a 10-points Iso-Sensitest broth medium to measure quantitatively the in vitro activity of the compounds against Acinetobacter baumannii ATCC17961 and Pseudomonas aeruginosa ATCC27853. Stock compounds in DMSO were serially twofold diluted (e.g. range from 50 to 0.097 μM final concentration) in 384 wells microtiter plates and inoculated with 49 μl the bacterial suspension in Iso-Sensitest medium to have a final cell concentration of ˜5×10^(5) CFU/ml in a final volume/well of 50 ul/well. Microtiter plates were incubated at 35±2° C. Bacterial cell growth was determined with the measurement of optical density at λ=600 nm each 20 minutes over a time course of 16 h. Growth inhibition was calculated during the logarithmic growth of the bacterial cells with determination of the concentration inhibiting 50% (IC50) and 90% (IC90) of the growth. Table 1 provides the 90% growth inhibitory concentrations (IC90) in micromoles per liter of the compounds of present invention obtained against the strain Acinetobacter baumannii ATCC17961.

Assay [2] has as its system Pseudomonas aeruginosa ATCC27853. The assay is described as above. The conditions noted are these: Iso-Sensitest broth, OD 600 nm over 16 h, 35±2° C., read-out: ATCC 27853 IC90. Format: cell-based. The method, then:
as §1, with “Table 2” for “Table 1”, “strain Pseudomonas aeruginosa ATCC27853.” for “strain Acinetobacter baumannii ATCC17961.”

The structures appear in SMILES notation. Where a name gives a salt, the structure may show the parent alone.

For the compound `CCc1cc(Nc2nccn3c(-c4ccc(-c5c[nH]nc5C)c(F)c4F)cnc23)ccc1C(=O)NCC1CCN(CC2CNC2)CC1` [Example A1, N-[[1-(Azetidin-3-ylmethyl)-4-piperidyl]methyl]-4-[[3-[2,3-difluoro-4-(3-methyl-1H-pyrazol-4-yl)phenyl]imidazo[1,2-a]pyrazin-8-yl]amino]-2-ethyl-benzamide; formic acid], the IC90 in assay [1] amounted to 47 nM; in assay [2], 160 nM.
Taken in the same sequence, the figures for `CCc1cc(Nc2nccn3c(-c4ccc(-c5c[nH]nc5C)c(F)c4F)cnc23)ccc1C(=O)NCC1CC[N+](C)(CC2CNC2)CC1` (centres unmarked) [Example A2, N-[[1-(Azetidin-3-ylmethyl)-1-methyl-piperidin-1-ium-4-yl]methyl]-4-[[3-[2,3-difluoro-4-(3-methyl-1H-pyrazol-4-yl)phenyl]imidazo[1,2-a]pyrazin-8-yl]amino]-2-ethyl-benzamide; formic acid; formate] were 50 nM and 98 nM.
Taken in the same sequence, the figures for `CCc1cc(Nc2nccn3c(-c4ccc(-c5c[nH]nc5C)c(F)c4F)cnc23)ccc1C(=O)NCC1CCN(CC(=O)O)CC1` [Example A3, 2-[4-[[[4-[[3-[2,3-difluoro-4-(3-methyl-1H-pyrazol-4-yl)phenyl]imidazo[1,2-a]pyrazin-8-yl]amino]-2-ethyl-benzoyl]amino]methyl]-1-piperidyl]acetic acid] were 340 nM and 1800 nM.
Taken in the same sequence, the figures for `CCc1cc(Nc2nccn3c(-c4ccc(-c5c[nH]nc5C)c(F)c4F)cnc23)ccc1C(=O)NCC1CC[N+](C)(CC(=O)O)CC1` (centres unmarked) [Example A4, 2-[4-[[[4-[[3-[2,3-difluoro-4-(3-methyl-1H-pyrazol-4-yl)phenyl]imidazo[1,2-a]pyrazin-8-yl]amino]-2-ethyl-benzoyl]amino]methyl]-1-methyl-piperidin-1-ium-1-yl]acetic acid; formate] were 310 nM and 1200 nM.
In the case of `CCc1cc(Nc2nccn3c(-c4ccc(-c5c[nH]nc5C)c(F)c4F)cnc23)ccc1C(=O)NCC1CC[N+](CC(=O)O)(CC2CNC2)CC1` (centres unmarked) [Example A5, 2-[1-(azetidin-3-ylmethyl)-4-[[[4-[[3-[2,3-difluoro-4-(3-methyl-1H-pyrazol-4-yl)phenyl]imidazo[1,2-a]pyrazin-8-yl]amino]-2-ethyl-benzoyl]amino]methyl]piperidin-1-ium-1-yl]acetic acid; formic acid; formate], the IC90 in assay [1] was determined as 150 nM; in assay [2], 240 nM.
In the case of `CCc1cc(Nc2nccn3c(-c4ccc(-c5c[nH]nc5C(F)(F)F)c(F)c4F)cnc23)ccc1C(=O)NCC1CCN(CC2CNC2)CC1` [Example A12, N-[[1-(azetidin-3-ylmethyl)-4-piperidyl]methyl]-4-[[3-[2,3-difluoro-4-[3-(trifluoromethyl)-1H-pyrazol-4-yl]phenyl]imidazo[1,2-a]pyrazin-8-yl]amino]-2-ethyl-benzamide; formic acid], the results for the IC90 in assay [1] and in assay [2] were 280 nM and 430 nM, respectively.
Taken in the same sequence, the figures for `CCc1cc(Nc2nccn3c(-c4ccc(-c5c[nH]nc5C)nc4F)cnc23)ccc1C(=O)NCC1CC[N+](C)(CC2CNC2)CC1` (centres unmarked) [Example B1, N-[[1-(Azetidin-3-ylmethyl)-1-methyl-piperidin-1-ium-4-yl]methyl]-2-ethyl-4-[[3-[2-fluoro-6-(3-methyl-1H-pyrazol-4-yl)-3-pyridyl]imidazo[1,2-a]pyrazin-8-yl]amino]benzamide; formic acid; formate] were 1100 nM and 120 nM.
In the case of `CCc1cc(Nc2nccn3c(-c4ccc(-c5c(C)n[nH]c5C)nc4F)cnc23)ccc1C(=O)NCC1CC[N+](C)(CC2CNC2)CC1` (centres unmarked) [Example B4, N-[[1-(azetidin-3-ylmethyl)-1-methyl-piperidin-1-ium-4-yl]methyl]-4-[[3-[6-(3,5-dimethyl-1H-pyrazol-4-yl)-2-fluoro-3-pyridyl]imidazo[1,2-a]pyrazin-8-yl]amino]-2-ethyl-benzamide; formic acid; formate], the values for the IC90 in assay [1] and in assay [2] were 430 nM and 98 nM, respectively.
For `CCc1cc(Nc2nccn3c(-c4ccc(-c5c[nH]nc5C)cc4)cnc23)ccc1C(=O)NCC1CC[N+](C)(CC2CNC2)CC1` (centres unmarked) [Example B5, N-[[1-(azetidin-3-ylmethyl)-1-methyl-piperidin-1-ium-4-yl]methyl]-2-ethyl-4-[[3-[4-(3-methyl-1H-pyrazol-4-yl)phenyl]imidazo[1,2-a]pyrazin-8-yl]amino]benzamide; formic acid; formate], the IC90 in assay [1] was 100 nM; in assay [2], 98 nM.
On the same counts, the results for `CCc1cc(Nc2nccn3c(-c4ccc(-c5c[nH]nc5C(F)(F)F)c(F)c4F)cnc23)ccc1C(=O)NCC1CC[N+](C)(CC2CNC2)CC1` (centres unmarked) [Example B6, N-[[1-(azetidin-3-ylmethyl)-1-methyl-piperidin-1-ium-4-yl]methyl]-4-[[3-[2,3-difluoro-4-[3-(trifluoromethyl)-1H-pyrazol-4-yl]phenyl]imidazo[1,2-a]pyrazin-8-yl]amino]-2-ethyl-benzamide; formic acid; formate] are 160 nM and 250 nM.
Taken in the same sequence, the figures for `CCc1cc(Nc2nccn3c(-c4ccc(-c5cn(CCOC)nc5C)c(F)c4F)cnc23)ccc1C(=O)NCC1CC[N+](C)(C)CC1` [Example C1, 4-[[3-[2,3-Difluoro-4-[1-(2-methoxyethyl)-3-methyl-pyrazol-4-yl]phenyl]imidazo[1,2-a]pyrazin-8-yl]amino]-N-[(1,1-dimethylpiperidin-1-ium-4-yl)methyl]-2-ethyl-benzamide; formate] were 270 nM and 1000 nM.
Taken in the same sequence, the figures for `CCc1cc(Nc2nccn3c(-c4ccc(-c5cn(CCOC)nc5C)c(F)c4F)cnc23)ccc1C(=O)NCC1CC[N+](C)(CC(N)=O)CC1` (centres unmarked) [Example C2, N-[[1-(2-amino-2-oxo-ethyl)-1-methyl - piperidin-1-ium-4-yl]methyl]-4-[[3-[2,3-difluoro-4-[1-(2-methoxyethyl)-3-methyl-pyrazol-4-yl]phenyl]imidazo[1,2-a]pyrazin-8-yl]amino]-2-ethyl-benzamide; formate] were 290 nM and 1200 nM.
With `CCc1cc(Nc2nccn3c(-c4ccc(-c5cn(CCOC)nc5C)c(F)c4F)cnc23)ccc1C(=O)NCC1CC[N+](C)(CCO)CC1` (centres unmarked) [Example C3, 4-[[3-[2,3-difluoro-4-[1-(2-methoxyethyl)-3-methyl-pyrazol-4-yl]phenyl]imidazo[1,2-a]pyrazin-8-yl]amino]-2-ethyl-N-[[1-(2-hydroxyethyl)-1-methyl-piperidin-1-ium-4-yl]methyl]benzamide; formate], the IC90 in assay [1] stood at 430 nM; in assay [2], 1600 nM.
Taken in the same sequence, the figures for `CCc1cc(Nc2nccn3c(-c4ccc(-c5cn(CCOC)nc5C)c(F)c4F)cnc23)ccc1C(=O)NCC1CC[N+](C)(CC2CNC2)CC1` (centres unmarked) [Example C4, N-[[1-(azetidin-3-ylmethyl)-1-methyl-piperidin-1-ium-4-yl]methyl]-4-[[3-[2,3-difluoro-4-[1-(2-methoxyethyl)-3-methyl-pyrazol-4-yl]phenyl]imidazo[1,2-a]pyrazin-8-yl]amino]-2-ethyl-benzamide; formic acid; formate] were 460 nM and 410 nM.
Taken in the same sequence, the figures for `CCc1cc(Nc2nccn3c(-c4ccc(-c5c(C)nn(CCOC)c5C)c(F)c4F)cnc23)ccc1C(=O)NCC1CC[N+](C)(CC(N)=O)CC1` (centres unmarked) [Example C5, N-[[1-(2-amino-2-oxo-ethyl)-1-methyl-piperidin-1-ium-4-yl]methyl]-4-[[3-[2,3-difluoro-4-[1-(2-methoxyethyl)-3,5-dimethyl-pyrazol-4-yl]phenyl]imidazo[1,2-a]pyrazin-8-yl]amino]-2-ethyl-benzamide; formate] were 680 nM and 1900 nM.
On the same counts, the results for `CCc1cc(Nc2nccn3c(-c4ccc(-c5c(C)nn(CCOC)c5C)c(F)c4F)cnc23)ccc1C(=O)NCC1CC[N+](C)(CCO)CC1` (centres unmarked) [Example C6, 4-[[3-[2,3-difluoro-4-[1-(2-methoxyethyl)-3,5-dimethyl-pyrazol-4-yl]phenyl]imidazo[1,2-a]pyrazin-8-yl]amino]-2-ethyl-N-[[1-(2-hydroxyethyl)-1-methyl-piperidin-1-ium-4-yl]methyl]benzamide; formate] are 440 nM and 1200 nM.
